Data from patent publication US12291508B2, “Hydrazide containing nuclear transport modulators and uses thereof” (Karyopharm Therapeutics Inc., priority 2011, dated 2025).
pIC50: −log10 of the molar value. Counter-ions that a name gives are not always drawn.

Legend:
MDA-MB-231 = assay: Cell proliferation assay, MDA-MB-231; type: cell-based; settings: Homo sapiens; MDA-MB-231, type BaB, 72 h
Protocol: (§1) The cells were seeded at 5×10^3 to 1.5×10^4 cells (depending on cell type) in each well of a 96-well plate in 100 μL of fresh culture medium and adherent cells were allowed to attach overnight. The stock solutions of the compounds were diluted in cell culture medium to obtain eight concentrations of each drug, ranging from 1 nM to 30 μM and DMSO at less than 1% v/v was used as a negative control. The resulting drug solutions were transferred onto the cells. After 72 h of treatment, 20 μl of CellTiter 96® AQueous reagent was added into each well of the 96-well assay plates and the plate was incubated at 37° C. for 1-4 hours in a humidified, 5% CO2 atmosphere. Then the absorbance of each well was recorded at 490 nm using a 96-well plate reader. In most cases, the assay was performed in triplicate and the results were presented as half maximal inhibitory concentration (IC50).

HCC-202 = assay: Cell proliferation assay, HCC-202; type: cell-based; settings: HCC202; HCC-202, type Lu/HER+, 72 h
Protocol: as §1

MDA-MB-468 cells = assay: Long-term growth assay, MDA-MB-468; type: cell-based; settings: MDA-MB-468, 1 μM, 10 days, crystal violet
Excerpt: At the end of the assay, media was removed from the cells and the remaining cells were stained with crystal violet.

BT-20 TNBC Basal B cells = assay: Nuclear localization of FOXO3a and IκB, BT-20; type: cell-based; settings: BT-20, 1 μM, 24 hours
Protocol: MDA-MB-468 TNBC Basal A and BT-20 TNBC Basal B cells were exposed to DMSO or 1 μM Compound 1-3 for 24 hours and then stained for FOXO3a or IκB with or without DAPI nuclear stain. The stained cells were examined for nuclear localization.

UACC812 = assay: Cell proliferation assay, UACC812; type: cell-based; settings: Homo sapiens, UACC-812; UACC812, type Lu, 72 h
Protocol: as §1

HS578T TNBC cells = assay: Apoptosis marker immunoblot, HS578T; type: cell-based; settings: 0 to 10 μM, 24 hours
Protocol: MDA-MB-468 TNBC, DU4475 and HS578T TNBC cells were exposed to concentrations of Compound 1-3 ranging from 0 to 10 μM for 24 hours. After 24 hours, whole protein cell extracts were run on immunoblots and were exposed to antibodies against the proteins indicated in FIGS. 2A-2C.

ZR7530 = assay: Cell proliferation assay, ZR7530; type: cell-based; settings: Homo sapiens, ZR-75-30; ZR7530, type Lu/HER+, 72 h
Protocol: as §1

[1] = test system: antibody-induced male BALB/c arthritic mice; assay: Monoclonal-antibody induced arthritis (CAIA); type: in vivo; settings: 4, 7.5, 15 mg/kg PO, Day 4, 6, 8, 10
Protocol: The health status of the animals was examined on arrival. Only animals in good health were acclimatized to laboratory conditions and were used in the study. Animals were provided ad libitum a commercial rodent diet and free access to drinking water, supplied to each cage via polyethylene bottles with stainless steel sipper tubes. Automatically controlled environmental conditions were set to maintain temperature at 20-24° C. with relative humidity (RH) of 30-70%, a 12:12 hour light:dark cycle and 10-30 air changes/hr in the study room Temperature, RH and light cycle were monitored daily by the control computer. Animals were given a unique animal identification number and on Day 0 of the study each animal received a tail vein injection of antibody cocktail (200 uL of 10 mg/mL). The antibody cocktail was supplied by MD Biosciences (Catalog #: CIA-MAB-50). On day 3, post the single mAb administration, all animals were subjected to LPS (200 uL of 0.5 mg/mL) administration by a single intraperitoneal (IP) injection. […]
Animals found in a moribund condition, animals with broken skin on an arthritic paw, or with a greater than a 20% decrease in body weight and animals showing severe pain and enduring signs of severe distress were humanely euthanized. Severe pain or distress was assessed on a case by case basis by experienced animal technicians. […]

[2] = test system: PMA-induced male BALB/c psoriatic mice; type: in vivo; settings: 10 mg/kg oral, M-W-F
Protocol: BALB/c mice were housed in individually ventilated cages in a controlled environment (temperature 22±1° C., humidity 70±5%, and 12 h light/12 h dark cycle) in the animal facility. The mice had access to commercially available feed pellets and UV-treated potable water ad libitum. 4 mice were housed per individually ventilated cage. Each animal in the cage was identified by a tail. 8 mice per group mice were randomized into different treatment groups according to body weight. Following randomization the mean body weight for all groups was equivalent. Study design was Group 1: Naïve, 1% DMSO vehicle (10-30 ul, topical once daily), Group 2: PMA, 1% DMSO vehicle (10-30 ul, topical once daily), Group 3: PMA, 1-4 10 mg/kg in PVP/Pluronics (oral, M-W-F; Day 1-Day 3-Day 5-Day 7), Group 4: PMA, 0.1% betamethasone—25 mg (reference standard) (topical once daily)
4 ug Phorbol 12-myristate 13-acetate (PMA) in 20 uL of acetone was applied every day to mouse ears. Starting from Day 2, PMA-induction of dermal inflammation/psoriasis manifested with increases in clinical disease activity index associated with increased thickness of ear, scaling of ear-skin, and folding of ear-skin. The following parameters were evaluated: (i) the thickness of the ear, (ii) scaling on the skin of ear. This will be based on a scoring index—0, no scaling; 1, mild scaling; 2, moderate scaling; 3, severe scaling. […]

Compound | pIC50 (MDA-MB-231) | pIC50 (HCC-202) | long-term growth (MDA-MB-468 cells) | localization of FOXO3a and IκB (BT-20 TNBC Basal B cells) | pIC50 (UACC812) | apoptosis (cleaved PARP, cleaved caspase 3) (HS578T TNBC cells) | pIC50 (ZR7530) | mean body weight (rate of weight gain) ([1]; compared to vehicle or dexamethasone) | mean total paw clinical arthritic score ([1]; compared with vehicle) | efficacy relative to positive control betamethasone [2] | mean ear thickness ([2]; compared to vehicle)
O=C(/C=C\n1cnc(-c2cc(C(F)(F)F)cc(C(F)(F)F)c2)n1)NNc1cnccn1 [Compound I-3, (Z)-3-(3-(3,5-bis(trifluoromethyl)phenyl)-1H-1,2,4-triazol-1-yl)-N′-(pyrazin-2-yl)acrylohydrazide] | 8.00 | 5.28 | inhibited the long-term growth | both FOXO3a and IκB were localized in the cell nucleus | 6.23 | only a negligible increase in cleaved PARP and cleaved caspase 3 | 4.72 |  |  |  | 
O=C(/C=C\n1cnc(-c2cc(C(F)(F)F)cc(C(F)(F)F)c2)n1)NNc1ccccn1 [Compound I-4, (Z)-3-(3-(3,5-bis(trifluoromethyl)phenyl)-1H-1,2,4-triazol-1-yl)-N′-(pyridin-2-yl)acrylohydrazide hydrochloride] |  |  |  |  |  |  |  | increased the rate of weight gain | significantly decreased the total score | comparable to positive control betamethasone | reduced mean ear thickness in a statistically significant manner
